Assay results as given in a melting point compilation (Tetko et al.; mined from patent text by program, amines drawn as free bases though some values may be those of a salt).

SMILES	melting point [°C]
CC(C)(C)OC(=O)NNC(=O)c1ccc2ncsc2c1	128 to 129
O=Cc1ccc(OCc2ccccc2)c(F)c1	94 to 95
CCOC(=O)C1CN(CC)c2nc(SC)ncc2C1=O (stereo not given)	157
CC1(C)c2ccc(C(O)CN3CCN(c4nsc5ccccc45)CC3)cc2C(C)(C)C1O (stereo not given)	88 to 97
O=C(c1sc2ccc(C(F)(F)F)cc2c1O)N(C=Cc1ccccc1)C=Cc1ccccc1	165 to 167
CCCc1nc2c(N)nc3cc(OCc4ccccc4C)ccc3c2n1CC(C)C	228
O=CN(O)C(COCc1ccccc1)CS(=O)(=O)N1CCN(c2cc(Cl)ncn2)CC1 (stereo not given)	118 to 120
Cc1cccc(S(=O)(=O)NC(=O)NCCCCCCNC(=O)NS(=O)(=O)c2cccc(Cl)c2)c1	187 to 189
CCOC(=O)C(C)c1ccc(-c2cn3cccnc3n2)cc1 (stereo not given)	171 to 173
O=C(COC1CCCCO1)c1ccccn1 (stereo not given)	63 to 65
O=C(O)c1cccc(-c2ccc3c(n2)C(Oc2ccc(Cl)cc2Cl)CC3)c1 (stereo not given)	198 to 204
COCc1cc2c3ccccc3n(C)c(=O)n2n1	98 to 100
COC(=O)CSc1nc(Nc2ccc(N3CCC(C)CC3)cc2)ncc1[N+](=O)[O-]	180 to 184
NS(=O)(=O)c1ccc(-c2c(-c3ccccc3)[nH]c3ccccc23)cc1	223 to 225
CCCC1C/C(=C\C(=O)NC2CC2)c2cc(F)ccc21 (stereo not given)	94 to 97
Cc1nnc(-c2ccnc(Nc3cc(F)ccc3F)c2)o1	202 to 203
Cc1cc(-n2ccnc2)c2cccc(OCc3c(Cl)ccc(S(=O)(=O)N4CCC[C@H]4C(=O)NCCN4CCCC4)c3Cl)c2n1	105
COc1ccc([C@@H]2C[C@H]2NC(=O)N(C)O)cc1OC (relative stereo)	142 to 144
Cc1[nH]c(CN(C)C)c(C)c1-c1ccnc(Nc2ccc(F)cc2)n1	88.4 to 91.6
COc1cc(C(C)=O)ccc1OC/C=C/CN1CCC(c2noc3cc(F)ccc23)CC1	57 to 59
O=c1[nH]cccc1CO	203 to 205
O=P(O)(O)C(O)(CCc1nccn1Cc1ccccc1)P(=O)(O)O	238
Fc1cccc(Cl)c1-c1c(Cl)cc(-c2ncccn2)nc1Cl	147
O=S1(=O)OCC(COC(C(F)(F)F)(C(F)(F)F)C(F)(F)F)(COC(C(F)(F)F)(C(F)(F)F)C(F)(F)F)CO1	90 to 91
CCCCN(C=O)C1CC(C)(C)N(O)C(C)(C)C1	77 to 79

SMILES	melting point [°C]
CCCCCCCCCCCCCCCCCCC(N)CN (stereo not given)	98 to 101
COc1ccc(-c2c(Cl)c(CN3C(=O)CCC3=O)nc3sc4c(c23)CC/C(=N/O)C4)cc1	248 to 249
COC(=O)C1C(=O)CCC1CSc1ccccc1 (stereo not given)	41 to 42
Cc1cc(NC(=O)c2ccccc2C)ccc1C(=O)O	231 to 233
Cc1cccc(C(=O)c2[nH]c3cc(Cl)ccc3c2N)c1	80 to 88
O=C(NCC12CC3CC(CC(C3)C1)C2)c1cc([N+](=O)[O-])ccc1Cl	178
NC(=O)c1ccccc1N1CCc2cc(Br)ccc21	120 to 122
CCC1=C(Cl)C(=O)c2ccccc2C1=O	109 to 110
COc1cc(C)ccc1S(=O)(=O)O	92 to 94
Cc1ncnc(C)c1C(=O)O	203 to 204
N#Cc1cn(-c2c(Cl)cccc2Cl)c(=O)[nH]c1=O	273 to 274
NNC(=O)c1cnn(-c2ccc(N(CCO)CCO)nn2)c1N	217 to 219
Cn1nc(-c2ccc(Cl)cc2)n(C)c1=S	113 to 115
COC(=O)C1(C(C[N+](=O)[O-])c2ccccc2)CCc2ccccc2C1=O (stereo not given)	101 to 103
Cc1ccc2c(C3CN4CCC3CC4)c(C)[nH]c2c1 (stereo not given)	237 to 238
Oc1ccc(CNCc2cccc(C(F)(F)F)c2)c2cccnc12	127 to 129
CC(C)c1cc2c(c3c1C(=O)N(CCl)S3(=O)=O)OCO2	174 to 176
COc1ccc(N2C(=O)CCNc3ccc(Cl)cc32)cc1	198 to 199
COc1ccnc(C(=O)Nc2ccc(Oc3ccc(C(F)(F)F)cc3)cc2)c1O	91 to 93
CN1Cc2c(C#CC(C)(C)O)ncn2-c2ccc(F)cc2C1=O	163 to 164
COc1ccc(C2(C#Cc3cccc(C#N)c3)CCC(=O)CC2)cc1OC1CCCC1	124 to 126
CCOC(=O)c1cc2c(F)cccc2nc1Cl	97
O=C(CC1CCCOC1=O)c1ccccc1 (stereo not given)	93 to 94
CC(=O)NCc1ccc2ccn(C3CCN(CCc4ccc(F)cc4)CC3)c2c1	127 to 128
O=C1Cc2cc3c(cc2C(c2ccc(F)cc2)=NN1)OCO3	205 to 207

SMILES	melting point [°C]
CCCc1nc2c(N)nc3ccccc3c2n1Cc1cc(-c2cccnc2)on1	206 to 207
CN1CCC(CC2CN=C(c3cc4cccc(N(C)S(=O)(=O)c5cccs5)c4[nH]3)S2)=N1 (stereo not given)	149 to 150
CN(Cc1ccccc1)C1(C#N)CCN(Cc2ccccc2)CC1	67 to 68
Cn1c(-c2ccc(-c3nccs3)cc2)cnc1[C@H](Cc1ccccn1)N(C=O)c1cc2cc(Cl)ccc2o1	144 to 146
CC(=O)c1cc2sc(C)c(N(C)S(=O)(=O)c3cccs3)c2[nH]1	220
Cc1cc(N)cc(C)c1Oc1ccc(O)c(C(=O)c2ccc(F)cc2)c1	198 to 202
O=c1c(CCCO)c(O)c2cccnc2n1-c1ccccc1	218 to 220
CNC(=O)ON=C1SCC(=O)N(C)C1C (stereo not given)	161 to 163
CCC(OC(=O)CCNC(=O)OC(C)(C)C)c1cc2n(c(=O)c1C)Cc1cc3ccccc3nc1-2 (stereo not given)	155 to 158
CCCCN(CCCC)c1ccc(C=Cc2ccc(C=CC3=C(C#N)C(=C(C#N)C#N)OC3(C)C)cc2)cc1	224 to 226
COc1cc(CO)c(N)c(OC)c1OC	56 to 58
O=C1NCCc2cc(I)ccc21	> 300
N#CCC1COc2ccccc2O1 (stereo not given)	66 to 67
COc1ccc(NN=C(Sc2ccc(Cl)c(Cl)c2)C(C)=O)cc1	109 to 113
Cn1nc(NC(=O)Nc2ccccc2)nc1NCCCOc1cccc(CN2CCCCC2)c1	137 to 139
C#Cc1ccnc(-c2cc([N+](=O)[O-])c(-c3ccccc3)cc2N)c1	187 to 190
CCN1OCC(=O)N(c2cc(Cl)ccc2C)C1=S	119 to 121
CCOc1ccc(C=CC(=O)c2c(OC)cc(OC)cc2OC(=O)CC)cc1	105
N#CC(c1ccccn1)C1CCCCC1O (stereo not given)	110 to 112
N#Cc1cc(=O)cc(-c2ccccc2)o1	146 to 149
Cc1ncsc1C(O)c1ccoc1 (stereo not given)	44 to 46
CCOC(NC(=O)c1ccccc1)C(N)=O (stereo not given)	148 to 150
CC(=O)OCc1c(-c2cc(Nc3cc4n(n3)CCN(C3COC3)C4)c(=O)n(C)n2)cccc1-n1ncc2cc(C(C)(C)C)cc(F)c2c1=O	180 to 185
CC(C)c1cc(-c2ccc(F)cc2)c(CO)c(C(C)C)n1	88 to 90
O=C(Cc1cccs1)c1c(O)c2cccnc2n(-c2ccccc2)c1=O	197 to 199
